The text below walks through data of patent publication US20040110769A1, “Farnesyl protein transferase inhibitor combinations with antiestrogen agents” (priority 2003, published 2004).

This assay relates to MCF7 human breast carcinoma cells. Description: Anti-tumor activity in established MCF-7 human breast tumor xenografts in nude mice. The assay is classed as in vivo. The following applies: MCF-7 xenograft in female nude mice, individual animals showing regression. The method, then:
A combination of a farnesyl transferase inhibitor, namely the compound identified as Compound 75 above (R115777), and an anti-estrogen agent, namely tamoxifen (TMX), was tested for anti-tumor activity in comparison with the activity of the individual components of the combination, as described below.
Female Nude-Homo NCRNU non-ovarectimized mice 8 weeks of age were fed ad libitum water and an irradiated standard rodent diet. Mice were housed in stable microisolators on a 12 hour light cycle at 21-22° C. and 40-60% humidity.
Mice were inoculated subcutaneously with 1×10^7 MCF7 human breast carcinoma cells in the flank. Tumors were monitored initially twice a week and then daily as neoplasms reached the desired size, approximately 100 mg. When the carcinomas reached a size between 62-144 mg in calculated tumor weight, the animals were pair matched into the various treatment groups (group mean tumor weights ranged from 83-85 mg).
Estimated tumor weight was calculated using the formula: [formula] […]
The tumor growth inhibition (TGI) endpoint was used in this study to assess the efficacy of the various treatments. The tumor burden endpoint was set at 1.0 g as measured by calliper. TGI values were determined on the last day of the study (Day 5), when all mice were under test, except those that had expired from treatment-related or procedural causes. […]

Structures are written as SMILES. Several values for one entry are separate records, joined by “and”; a condition that tells them apart may be missing. Equal values may be shown once.

With `Cn1cncc1C(N)(c1ccc(Cl)cc1)c1ccc2c(c1)c(-c1cccc(Cl)c1)cc(=O)n2C` (single isomer, unassigned; (+)) [Compound R115777, (+)-6-[amino(4-chlorophenyl)(1-methyl-1H-imidazol-5-yl)methyl]-4-(3-chlorophenyl)-1-methyl-2(1H)-quinolinone], under “R115777 100 mg/kg, orally qd to end”, the “Regression in Individual Animals (magnitude of tumor regression expressed as % reduction from pretreatment tumor size)” value is 93% and 100%.

For `CC/C(=C(\c1ccccc1)c1ccc(OCCN(C)C)cc1)c1ccccc1` [TMX, tamoxifen], the “Regression in Individual Animals (magnitude of tumor regression expressed as % reduction from pretreatment tumor size)” value (TMX 1 mg/kg, s.c.) was 10% and 78% and 94% and 44% and 59% and 31%.
